Here are results for 15 molecules from US8404692B2, “Pyrimidin-4-yl-3, 4-dihydro-2H-pyrrolo [1,2A] pyrazin-1-one compounds” (Cyclacel Limited, priority 2005, dated 2013).

For experiment [1], the system named is nuclear phospho-Histone H3 and/or MPM2 staining. Description: Cellomics Arrayscan assay for mitotic index (PH3 and MPM2 staining). It counts as cell-based. Particulars: for IC50: IC50 of phosphorylated Histone H3 staining normalised using MPM2 staining, read-out: MI (Cellomics) PH3/MPM2 IC50*; for MI (Cellomics) MPM2 % of Control**: cells stained with MPM2 Ab after treatment, as % of MPM2 stained cells treated with vehicle (DMSO). How it is done: The percentage of cells with nuclear phospho-Histone H3 and/or MPM2 staining were determined in 96-well plate assays using the Cellomics Arrayscan Mitotic Index HitKit protocol (Cellomics Inc). Briefly, cells were plated at 10^4 cells per well and incubated for 16-18 h at 37° C. Compounds were added and the cells incubated for the appropriate time before a 15 min fixation in 3.7% formaldehyde in wash buffer (Cellomics Inc.). Cells were permeabilised in 0.2% Triton in wash buffer for 15 min, washed, then incubated with primary antibodies that specifically recognise mitotic epitopes; rabbit anti-phosphohistone H3 (Upstate 06570) or mouse anti-phospho-Ser/Thr-Pro MPM2 (Upstate 05-368). After a 1 h incubation cells were washed and incubated with secondary FITC-conjugated anti-mouse and/or TRITC-conjugated anti-rabbit secondary antibodies (Jackson laboratories) and Hoescht dye. After a further 1 h incubation the cells were washed, then the plate was analysed using a Cellomics Arrayscan II automated fluorescent microscopy system to detect nuclear fluorescent staining. Data for 2000 cells per well were stored and the percentage of cells expressing mitotic epitopes compared to total cells (stained with Hoescht dye) was calculated using the Cellomics mitotic index algorithm.

In another experiment the test system is A2780. Description: MTT cytotoxicity assay A2780. In kind it is cell-based. The settings on record: Homo sapiens; A2780 cells, 96-h MTT. The method, then: (§1) The compounds of the invention were subjected to a standard cellular proliferation assay using cell lines […] and MiaPaCa (obtained from The European Collection of Cell Cultures). […] C.; Thomas, D. G.; Darling, J. L. Anti Cancer Drugs 1996, 7, 331-8; Loveland, B. E.; Johns, T. G.; Mackay, I. R.; Vaillant, F.; Wang, Z. X.; Hertzog, P. J. Biochemistry International 1992, 27, 501-10). In short: cells were seeded into 96-well plates according to doubling time and incubated overnight at 37° C. […] MTT was made up as a stock of 5 mg/mL in cell media and filter-sterilised. Media was removed from cells followed by a wash with 200 μL PBS. MTT solution was then added at 20 μL per well and incubated in the dark at 37° C. for 4 h. MTT solution was removed and cells again washed with 200 μL PBS. MT dye was solubilised with […] per well of DMSO with agitation. Absorbance was read at 540 nm and data analysed using curve-fitting software (GraphPad Prism version 3.00 for Windows, GraphPad Software, San Diego Calif. USA) to determine IC50 values (concentration of test compound which inhibits cell growth by 50%).

The target of a further experiment is human CDK7/cyclin H (Homo sapiens, UniProt P50613). The experiment can be described thus: CDK 7 and 9 assays: CDK7/H. It counts as biochemical. The settings on record: in vitro kinase data. How it is done: The compounds of the invention above were investigated for their ability to inhibit the enzymatic activity of various protein kinases. This was achieved by measurement of incorporation of radioactive phosphate from ATP into appropriate polypeptide substrates. Recombinant protein kinases and kinase complexes were produced or obtained commercially. Assays were performed using 96-well plates and appropriate assay buffers (typically 25 mM β-glycerophosphate, 20 mM MOPS, 5 mM EGTA, 1 mM DTT, 1 mM […], pH 7.4), into which were added 2-4 μg of active enzyme with appropriate substrates. The reactions were initiated by addition of Mg/ATP mix (15 mM MgCl2+100 μM ATP with 30-50 kBq per well of [γ-^32P]-ATP) and mixtures incubated as required at 30° C. Reactions were stopped on ice, followed by filtration through p81 filterplates or GF/C filterplates (Whatman Polyfiltronics, Kent, UK). After washing 3 times with 75 mM aq orthophosphoric acid, plates were dried, scintillant added and incorporated radioactivity measured in a scintillation counter (TopCount, Packard Instruments, Pangbourne, Berks, UK). Compounds for kinase assay were made up as 10 mM stocks in DMSO and diluted into 10% DMSO in assay buffer. Data was analysed using curve-fitting software (GraphPad Prism version 3.00 for Windows, GraphPad Software, San Diego Calif. USA) to determine IC50 values (concentration of test compound which inhibits kinase activity by 50%).
CTD peptide substrate (biotinyl-Ahx-(Tyr-Ser-Pro-Thr-Ser-Pro-Ser)4-NH2; 1-2 mg/mL) and recombinant human CDK7/cyclin H, CDK9/cyclin T1, or CDK9/cyclin K (0.5-2 μg) were incubated for 45 min at 30° C. in the presence of varying amounts of test compound in 20 mM MOPS pH 7.2, 25 mM β-glycerophosphate, 5 mM EGTA, 1 mM DTT, 1 mM sodium vanadate, 15 mM MgCl2, and 100 μM ATP (containing a trace amount of ^32PγATP) in a total volume of 25 μL in a 96-well microtiter plate. […] Microscint 40 scintillation liquid (50 μL) was added to each well, and the amount of ^32P incorporation for each sample was measured using a Packard Topcount microplate scintillation counter.

The test system of another experiment is MiaPaCa. The experiment can be described thus: MTT cytotoxicity assay MiaPaCa. In kind it is cell-based. Particulars: Homo sapiens, MIA PaCa-2; MiaPaCa cells, 96-h MTT. How it is done:
as §1
Background: Tetrazolium dyes change colour on reduction, which living cells bring about.

Another experiment has as its target T1, aurora-A (human) (Homo sapiens, UniProt O14965).
T1 construct: purchased Upstate, Dundee, UK
T1 sequence (O14965 1-403): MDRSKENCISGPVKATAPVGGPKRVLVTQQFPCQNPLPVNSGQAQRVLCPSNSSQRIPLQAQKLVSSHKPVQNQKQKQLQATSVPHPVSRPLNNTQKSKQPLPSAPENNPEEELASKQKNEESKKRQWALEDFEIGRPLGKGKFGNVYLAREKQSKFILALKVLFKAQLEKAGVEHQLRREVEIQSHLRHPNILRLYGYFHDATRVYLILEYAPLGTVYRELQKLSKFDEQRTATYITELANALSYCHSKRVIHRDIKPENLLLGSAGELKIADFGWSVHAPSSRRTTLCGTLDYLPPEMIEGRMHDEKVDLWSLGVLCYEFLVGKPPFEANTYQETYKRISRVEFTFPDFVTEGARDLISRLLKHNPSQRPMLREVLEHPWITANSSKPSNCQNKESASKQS
The experiment can be described thus: Aurora-A (human) kinase assay. Particulars: read-out: Activity (Aurora A activity, IC50 grading). It counts as biochemical. The gist of the method:
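Radiometric assay measuring [γ-32P] transfer from 100 μM ATP to 500 μM Kemptide by 2-5 ng active human aurora-A, pH 7.5 buffer, 30 min at 30° C. Incorporated label captured on P81 filters and counted by scintillation; IC50 from curve fitting.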

Sequence of human CDK7/cyclin H (P50613 whole entry): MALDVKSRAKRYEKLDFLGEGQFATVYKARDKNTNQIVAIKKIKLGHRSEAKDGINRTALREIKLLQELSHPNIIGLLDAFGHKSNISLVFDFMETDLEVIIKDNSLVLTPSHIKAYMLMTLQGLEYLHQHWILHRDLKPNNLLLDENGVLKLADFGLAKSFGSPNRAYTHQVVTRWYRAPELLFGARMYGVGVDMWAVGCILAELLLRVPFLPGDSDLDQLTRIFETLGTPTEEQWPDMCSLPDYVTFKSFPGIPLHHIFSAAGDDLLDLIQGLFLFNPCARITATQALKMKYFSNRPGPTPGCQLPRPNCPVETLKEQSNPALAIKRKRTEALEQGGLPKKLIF
Sequence of human CDK7/cyclin H (P51946 whole entry partner): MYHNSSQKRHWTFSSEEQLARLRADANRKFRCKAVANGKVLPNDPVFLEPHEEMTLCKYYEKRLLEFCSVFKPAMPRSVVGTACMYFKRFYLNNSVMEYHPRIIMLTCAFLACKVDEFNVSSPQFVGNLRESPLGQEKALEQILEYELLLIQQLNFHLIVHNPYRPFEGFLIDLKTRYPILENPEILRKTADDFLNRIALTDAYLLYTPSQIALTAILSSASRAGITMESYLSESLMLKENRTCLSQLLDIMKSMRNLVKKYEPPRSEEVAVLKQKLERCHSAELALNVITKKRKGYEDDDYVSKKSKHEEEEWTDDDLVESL

Broadly, the Ki is the dissociation constant of the complex between target and ligand, obtained from inhibition or displacement. Regarding `Cc1c(-c2ccnc(Nc3ccc(N4CCOCC4)cc3)n2)c(C)n2c1C(=O)NCC2` [Example I-2, 6,8-Dimethyl-7-[2-(4-morpholin-4-yl-phenylamino)-pyrimidin-4-yl]-3,4-dihydro-2H-pyrrolo[1,2-a]pyrazin-1-one], the IC50 in experiment [1] was 9200 nM; with A2780, 575 nM; in the experiment on MiaPaCa, 1800 nM; at aurora-A (human), less than 1000 nM. Further, the “MI (Cellomics) MPM2 % of Control**” value in experiment [1] stood at 333%. The molecule further showed a Ki at human CDK7/cyclin H of 3410 nM.
Take `COc1cc(Nc2nccc(-c3c(C)c4n(c3C)CCNC4=O)n2)ccc1N1CCOCC1` [Example I-3, 7-[2-(3-Methoxy-4-morpholin-4-yl-phenylamino)-pyrmidin-4-yl]-6,8-dimethyl-3,4-dihydro-2H-pyrrolo[1,2-a]pyrazin-1-one]: the IC50 in experiment [1] is 4740 nM; in the experiment on A2780, 750 nM; with MiaPaCa, 1850 nM; at aurora-A (human), less than 100 nM. In experiment [1], the “MI (Cellomics) MPM2 % of Control**” value is 317%. This molecule yielded a Ki at human CDK7/cyclin H of 2790 nM.
Take `CNC(=O)Cc1ccc(Nc2nccc(-c3c(C)c4n(c3C)CCNC4=O)n2)cc1` [Example I-103, 2-{4-[4-(6,8-Dimethyl-1-oxo-1,2,3,4-tetrahydro-pyrrolo[1,2-a]pyrazin-7-yl)-pyrimidin-2-ylamino]-phenyl}-N-methyl-acetamide]: the IC50 on aurora-A (human) is less than 100 nM.
Same read-out and setting: next, `Cc1c(-c2ccnc(Nc3ccc(CC(=O)N(C)C)cc3)n2)c(C)n2c1C(=O)NCC2` [Example I-104, 2-{4-[4-(6,8-Dimethyl-1-oxo-1,2,3,4-tetrahydro-pyrrolo[1,2-a]pyrazin-7-yl)-pyrimidin-2-ylamino]-phenyl}-N,N-dimethyl-acetamide]: less than 1000 nM; `COCCNC(=O)CCc1cccc(Nc2nccc(-c3c(C)c4n(c3C)CCNC4=O)n2)c1` [Example I-105, 3-{3-[4-(6,8-Dimethyl-1-oxo-1,2,3,4-tetrahydro-pyrrolo[1,2-a]pyrazin-7-yl)-pyrimidin-2-ylamino]-phenyl}-N-(2-methoxy-ethyl)-propionamide]: less than 100 nM; `Cc1c(-c2ccnc(Nc3cccc(CCC(=O)N(C)CCN(C)C)c3)n2)c(C)n2c1C(=O)NCC2` [Example I-106, N-(2-Dimethylamino-ethyl)-3-{3-[4-(6,8-dimethyl-1-oxo-1,2,3,4-tetrahydro-pyrrolo[1,2-a]pyrazin-7-yl)-pyrimidin-2-ylamino]-phenyl}-N-methyl-propionamide]: less than 1000 nM.
Turning to `Cc1c(-c2ccnc(Nc3cccc(CCC(=O)N(C)CCCN(C)C)c3)n2)c(C)n2c1C(=O)NCC2` [Example I-107, N-(3-Dimethylamino-propyl)-3-{3-[4-(6,8-dimethyl-1-oxo-1,2,3,4-tetrahydro-pyrrolo[1,2-a]pyrazin-7-yl)-pyrimidin-2-ylamino]-phenyl}-N-methyl-propionamide], the IC50 at aurora-A (human) was less than 1000 nM.
For `Cc1c(-c2ccnc(Nc3cccc(CCC(=O)N4CCOCC4)c3)n2)c(C)n2c1C(=O)NCC2` [Example I-108, 6,8-Dimethyl-7-{2-[3-(3-morpholin-4-yl-3-oxo-propyl)-phenylamino]-pyrimidin-4-yl}-3,4-dihydro-2H-pyrrolo[1,2-a]pyrazin-1-one], at aurora-A (human), the IC50 is less than 100 nM.
Take `CC(=O)N1CCN(C(=O)CCc2cccc(Nc3nccc(-c4c(C)c5n(c4C)CCNC5=O)n3)c2)CC1` [Example I-109, 7-(2-{3-[3-(4-Acetyl-piperazin-1-yl)-3-oxo-propyl]-phenylamino}-pyrimidin-4-yl)-6,8-dimethyl-3,4-dihydro-2H-pyrrolo[1,2-a]pyrazin-1-one]: at aurora-A (human), the IC50 was less than 1000 nM.
Still for that read-out and setting: the value for `Cc1c(-c2ccnc(Nc3cccc(CCC(=O)N4CCN(C)CC4)c3)n2)c(C)n2c1C(=O)NCC2` [Example I-110, 6,8-Dimethyl-7-(2-{3-[3-(4-methyl-piperazin-1-yl)-3-oxo-propyl]-phenylamino}-pyrimidin-4-yl)-3,4-dihydro-2H-pyrrolo[1,2-a]pyrazin-1-one] was less than 1000 nM.
Still for that read-out and setting: next, `Cc1c(-c2ccnc(Nc3cccc(CCC(N)=O)c3)n2)c(C)n2c1C(=O)NCC2` [Example I-111, 3-{3-[4-(6,8-Dimethyl-1-oxo-1,2,3,4-tetrahydro-pyrrolo[1,2-a]pyrazin-7-yl)-pyrimidin-2-ylamino]-phenyl}-propionamide]: less than 100 nM; `CNC(=O)CCc1cccc(Nc2nccc(-c3c(C)c4n(c3C)CCNC4=O)n2)c1` [Example I-112, 3-{3-[4-(6,8-Dimethyl-1-oxo-1,2,3,4-tetrahydro-pyrrolo[1,2-a]pyrazin-7-yl)-pyrimidin-2-ylamino]-phenyl}-N-methyl-propionamide]: less than 100 nM.
In the case of `Cc1c(-c2ccnc(Nc3cccc(CCC(=O)N(C)C)c3)n2)c(C)n2c1C(=O)NCC2` [Example I-113, 3-{3-[4-(6,8-Dimethyl-1-oxo-1,2,3,4-tetrahydro-pyrrolo[1,2-a]pyrazin-7-yl)-pyrimidin-2-ylamino]-phenyl}-N,N-dimethyl-propionamide], the IC50 on aurora-A (human) was less than 100 nM.
For `COc1cc(C(=O)NC2CCN(C)CC2)ccc1Nc1nccc(-c2c(C)c3n(c2C)CCNC3=O)n1` [Example I-114, 4-[4-(6,8-Dimethyl-1-oxo-1,2,3,4-tetrahydro-pyrrolo[1,2-a]pyrazin-7-yl)-pyrimidin-2-ylamino]-3-methoxy-N-(1-methyl-piperidin-4-yl)-benzamide], the IC50 on aurora-A (human) is less than 10000 nM.
Regarding `Cc1c(-c2ccnc(Nc3ccc(C(=O)NC4CCN(C)CC4)cc3)n2)c(C)n2c1C(=O)NCC2` [Example I-115, 4-[4-(6,8-Dimethyl-1-oxo-1,2,3,4-tetrahydro-pyrrolo[1,2-a]pyrazin-7-yl)-pyrimidin-2-ylamino]-N-(1-methyl-piperidin-4-yl)-benzamide], the IC50 on aurora-A (human) is less than 100 nM.
